Experimental data from patent US7812142B2, “Pentose derivatives as anti-hyperglycemic drugs” (Yissum Research Development Company of the Hebrew …, priority 2002, dated 2010).

Experiments:
[1] = tested on: glucose uptake in cultured cells; assay: In vitro glucose uptake / hexose transport in cultured cells with xylose derivatives (Table 2); type: cell-based; conditions: for EC50 / ECmax: EC = Effective concentration
Method: Table 2 summarizes in vitro results obtained with some of these newly synthesized xylose derivatives.
(§1) Uptake assay of the tritiated glucose analogue, 2-deoxy-D-glucose, is routinely performed as described in [Sasson, S. and Cerasi, E. (1986) J. Biol. Chem. 261, 16827-16833].
All new compounds are screened and tested first in various insulin-sensitive cell cultures used routinely in the laboratory (skeletal muscle and adipose cell lines). In addition these drugs were tested in non-insulin-sensitive cells such as primary cultures of bovine and porcine vascular endothelial and smooth muscle cells. Active compounds were tested ex-vivo on isolated rat soleus muscles. All cell cultures and tissues were maintained under hyperglycemic condition prior to the addition of the test compounds. Dose-response and time-course experiments determine which of the derivatives are subsequently tested in animal models. For each potent compound the total cell content and plasma membrane abundance of GLUT-1 and GLUT-4 was determined, as described above. The same biotinylation technique was employed to determine the total and plasma membrane content of both transporters in isolated mouse or rat soleus muscles treated with potent compounds.

[2] = tested on: L6 myotubes; assay: dGlc uptake assay in L6 myotubes; type: cell-based, rat; conditions: for effect of PI3-kinase inhibitor LY-249002 on the substance's stimulation of hexose transport: 60 μM inhibitor, 23.0 mM glucose (FIG. 11A), EH-40 data not shown
Method: (§2) FIG. 10: Western blot depicting effect of 3-O-propyl-D-xylose (EH-114), and 1,3-O-dimethylxylopyranoside (EH-101) on the total cell content and plasma membrane abundance of GLUT-4 in the absence or presence of insulin. L6 myotubes were maintained for 48 hr at 23 mM Glucose. The cells were than washed and received fresh medium containing the indicated additions and incubated for additional […]. Insulin was added during the last 30 min of incubation before the dGlc uptake assay.
FIG. 11A: Effect of LY-249002, a PI3-kinase inhibitor, on insulin, D-xylose, EH-101 and EH-114-mediated glucose uptake. L6 myotubes were treated as described in the legend to FIG. 10. The glucose concentration in the culture medium was 23.0 mM. The concentration of LY-294002 was 60 μM. At the end of incubation the cells were taken for the standard dGlc uptake assay. Mean±SEM, n=3.
(§3) GLUT-1 and GLUT-4 mediate glucose entry into L6 myotubes. It is established that GLUT-4 is translocated effectively and rapidly to the plasma membrane upon insulin treatment. The inventors looked at the effect of 3-O-propyl-D-xylose EH-114) and 1,3-O-dimethylxylopyranoside (EH-101) on the total cell content and plasma membrane abundance of these transporters in the absence or presence of insulin. L6 myotubes were maintained at 5.0 or 23.0 mM glucose for 48 hr and EH-114 and EH-101 were present during the last 24 hr. The cells were then taken for the standard [^3H]-2-deoxy-D-glucose uptake assay and for the biotinylation procedure for determining the amount of GLUT-1 and GLUT-4 in the plasma membrane. High glucose levels decreased the hexose transport rate by ˜50%. Insulin augmented the transport nearly 2-fold in both cases. EH-114 and EH-101 increased the transport rate 2-3-fold in the absence of insulin. Together with insulin the uptake rate was increased nearly 3-fold.
The inventors also tested the hypothesis that the active D-xylose derivatives augment the hexose transport capacity in L6 myotubes by translocating GLUT-4 to the plasma membrane not via the common insulin-regulated pathway. For this experiment, a selective inhibitor of the enzyme PI3-kinase, LY-249002, which is a key enzyme in the cellular transduction mechanism of insulin, was utilized. […] These findings also agree well with the longer onset of action of these derivatives as compared to the rapid action of insulin. Similar results were obtained when LY-249002 was present together with the derivatives throughout the entire incubation period.
as §1

[3] = tested on: PKB; assay: PKB phosphorylation immunoblot in L6 myotubes; type: cell-based, rat; conditions: 23.0 mM glucose; 100 nM insulin, 20 mM xylose, 5 mM EH-114 or 250 μM EH-40, up to 24 hrs (FIG. 11B)
Method: FIG. 11B: Effects of insulin D-xylose and xylose derivatives on PKB phosphorylation. L6 myotubes were maintained at 5.5 mM or 23.0 mM glucose. The latter were treated with 100 nM insulin, 20 mM xylose, 5 mM EH-114 or 250 μM EH-40 up to 24 hrs. At the indicated times treated myotubes were collected, homogenized and lysed and the soluble protein fraction was isolated. The control myotubes were collected at the end of the 24 hr incubation period. Equal amounts of proteins of the various treated myotubes were separated on SDS-PAGE and immunoblotted with a specific antibody against phospho-Axt1/PKBα (Ser473). In order to test whether xylose derivative activate insulin transduction elements downstream of PI3K, the inventors tested the state of PKB phosphorylation, as shown in FIG. 11B.

[4] = tested on: C2 myotubes; assay: dGlc uptake assay in C2 myotubes; type: cell-based, mouse; conditions: 20 mM pentose, preconditioned with 20 mM glucose (FIG. 7)
Method: The time-course of D-xylose effect in two types of skeletal muscle cells (L8 myocytes and C2 myotubes) was studied. L8 myocytes and C2 myotubes preconditioned in 20 mM glucose were incubated with 20 mM xylose. After 90 min the cells were washed and incubated with 20 mM glucose, and subjected to a deoxyglucose dGlc uptake assay (14).
The inventors have also measured the effect of different doses of D-xylose in C2 myotubes. C2 myotubes preconditioned with 20 mM glucose received fresh medium containing 20 mM glucose or increasing concentrations of D-xylose. Standard dGlc uptake assay was performed after 1 hr incubation. […] D-xylose augmented the rate of hexose transport ˜2-fold within 1-2 hr; half-maximal stimulation was observed within 20-30 min, as shown in FIG. 2.
However, in the above experiments the cells were exposed to D-xylose after removal of the conditioning glucose concentration. […] The inventors therefore added 20 mM D-xylose to C2 myotubes in the presence of 8 or 16 mM glucose and followed its effect.
It has shown before by the inventors of the present invention that deoxyglucose (dGlc) depresses the hexose transport system in myocytes and that a subsequent incubation with low (even no) glucose fails to reverse this effect of dGlc [Sasson, S et al (1997)]. The inventors have therefore measured the effect of D-xylose on rate of hexose transport following treatment with dGlc. In one experiment, C2 myotubes preconditioned with 2 mM glucose received fresh medium containing 2 mM dGlc. A portion of the cells were washed after 30 min and received 20 MM D-xylose or 2 mM D-glucose, and subjected to a dGlc uptake assay at different time points. In another experiment, L8 myocytes preconditioned with 2 mM glucose were washed and incubated with 2 mM xylose or 2 mM dGlc. A portion of the cells were washed again after 2 hr and incubated with 20 mM xylose, and subjected to a dGlc uptake assay at different time points.
as §1

[5] = tested on: 3T3-L1 adipocytes; assay: Screening of methylated xylose derivatives, dGlc uptake assay (Table 1); type: cell-based; conditions: Mean±SEM (n=3-6); for HEXOSE UPTAKE (Percent of Control) Without Insulin: 3T3-L1 adipocytes 24 hr at 20 mM glucose, test compounds 0.1-20.0 mM, 2-45 hr; for HEXOSE UPTAKE (Percent of Control) With Insulin: as E1, 500 nM insulin 30 min prior to uptake assay
From the text: There are five carbon atoms in xylose available for chemical modifications. Each of these atoms was methylated by modifications of published chemical procedures [Bollenback, G. N. (1963) In Methods in carbohydrate chemistry, vol. 2 (Whistler, R. L. and Wolfrom, M. L., eds.), pp. 326-331, Academic Press, New York; Bowering, W. and Timel, T. (1958) Can. J. Chem. 36, 283-285; Levine, P. and Raymomd, A. (1933) J. Biol. Chem. 102, 331-344; Takeo, K. (1992) Carbohyd. Res. 224, 311-318]. All compounds were purified by HPLC and their structure verified by NMR spectroscopy. […] At the end of the incubation period the cells were taken for a standard [^3H]-2-deoxy-D-glucose uptake assay in the absence or the presence of 500 nM insulin (30 min exposure prior to the uptake assay).
3T3-L1 adipocytes and L6 myotubes were maintained for 24 hr at 20 mM glucose. Test compounds were added (0.1-20.0 mM) and the cells were incubated further for 2-45 hr. At the end of the incubation periods the cells were washed and taken for a standard [^3H]2-deoxy-D-glucose (dGlc) uptake assay. Uptake values (given for control cells) are in nmol dGlc/mg protein/min. Mean±SEM (n=3-6).
as §1

[6] = tested on: GLUT-4; assay: Cell surface biotinylation and western blot of GLUT-4 in L6 myotubes; type: cell-based, rat
Method: as §2, §3
Surface biotinylation of the cells was performed as previously described [Sasson et al (1997), Diabetologia, 40, 30-398].

[7] = tested on: glucose transporter; assay: [3H]dGlc uptake with unlabeled carbohydrates (affinity for the glucose transporter) in C2 myotubes; type: cell-based, mouse; conditions: 0.1 mM dGlc, increasing unlabeled carbohydrate
Method: FIG. 6: Lack of affinity of D-xylose for the glucose transporters. C2 myotubes preconditioned with 20 mM glucose were subjected to [^3H]dGlc uptake assay (0.1 mM dGlc) with increasing concentrations of unlabeled dGlc, glucose or xylose. The unlabeled carbohydrates were added to the [^3H]dGlc solution in the uptake assay.
The inventors have also determined the affinity of D-xylose for the glucose transporter. C2 myotubes preconditioned with 20 mM glucose were subjected to [^3H]dGlc uptake assay (0.1 mM dGlc) in the presence of increasing concentrations of unlabeled dGlc, glucose or xylose. The results of these experiments are depicted in FIG. 6. The affinity of D-xylose for the glucose transporter is 2 orders of magnitude lower compared to glucose. The final concentration of dGlc in the assay was 0.1 mM.

Row | EC50 [1] [mM] | Molecule | Fold Increase of Glucose Uptake [1] [fold] | ECmax [1] [mM] | HEXOSE UPTAKE (Percent of Control) Without Insulin [5] | HEXOSE UPTAKE (Percent of Control) With Insulin [5] | other results
1 | 1.3 | CCO[C@@H]([C@H](O)CO)[C@@H](O)C=O [3-O-ethyl D-xylose] | 2.3 | 4 | – | – | –
2 | – | CCSC(SCC)[C@@H]1OC(c2ccccc2)O[C@H](CO)[C@@H]1O (stereo partly drawn) [EH-40, 2,4-benzylidene-D-xylose-diethyl-dithioacetal] | – | – | – | – | effect of PI3-kinase inhibitor LY-249002 on the substance's stimulation of hexose transport [2]: abolished; PKB phosphorylation [3]: time-dependent and sustained phosphorylation
3 | – | O=C[C@@H](O)[C@@H](O)[C@H](O)CO [D-lyxose] | – | – | – | – | effect of pentoses on the rate of hexose transport [4]: to a lesser extent
4 | 0.3 | di-4-(1-O-methyl-xylopyranoside)-phosphoryl-PEG-O-methyl [1-O-methyl D-xylose-PEG] | 1.9 | 0.6 | – | – | –
5 | – | COC1OC[C@@H](OC)[C@H](OC)[C@H]1OC (stereo partly drawn) [1,2,3,4-O-tetramethyl xylopyranoside] | – | – | 95 ± 7% of Control | 104 ± 8% of Control | –
6 | – | CO[C@H]1C(O)OC[C@@H](O)[C@@H]1O (stereo partly drawn) [2-O-methyl xylopyranose] | – | – | 63 ± 7% of Control | 73 ± 15% of Control | –
7 | 2 | CO[C@H]1[C@H](O)COC(O)[C@@H]1O (stereo partly drawn) [3-O-methyl xylopyranose] | 2.0 | 4 | 201 ± 30% of Control | 159 ± 7% of Control | –
8 | 6 | COC1OC[C@@H](O)[C@H](O)[C@H]1O (stereo partly drawn) [1-O-methyl xylopyranoside] | 1.5 | 10 | 154 ± 4% of Control | 156 ± 24% of Control | –
9 | – | CO[C@@H]1COC(O)[C@H](O)[C@H]1O (stereo partly drawn) [4-O-methyl xylopyranose] | – | – | 72 ± 112% of Control | 111 ± 2% of Control | –
10 | 0.125 | COC(OC)[C@@H]1OC(c2ccccc2)O[C@@H]2COC(c3ccccc3)O[C@@H]21 (stereo partly drawn) [EH-3, 2,4:3,5-di-O-benzylidene-D-xylose-dimethylacetal] | 1.7 | 0.3 | – | – | –
11 | 2 | COC1OC[C@@H](O)[C@H](OC)[C@H]1O (stereo partly drawn) [EH-101, 1,3-O-dimethyl xylopyranoside] | 3.0 | 4 | 267 ± 57% of Control | 174 ± 28% of Control | total cell content of GLUT-4 ([6]; L6 cells exposed to 23.0 mM glucose (FIG. 10)): increased the total content of the transporter; translocation of GLUT-4 to the plasma membrane ([6]; L6 myotubes, xylose derivatives in the absence of insulin, insulin 500 nM (FIG. 10)): induced significant translocation of GLUT-4 to the plasma membrane; effect of PI3-kinase inhibitor LY-249002 on the substance's stimulation of hexose transport [2]: failed to affect; increase of uptake rate together with insulin ([2]; L6 myotubes, compound during last 24 hr plus insulin): ~3 fold; duration of activity following removal from the culture media ([1]; after being washed from cell cultures): 24 h
12 | – | COC[C@H]1OC(O)[C@H](O)[C@H]1O (stereo partly drawn) [5-O-methyl xylofuranose] | – | – | 70 ± 5% of Control | 53 ± 22% of Control | –
13 | – | CCSC(SCC)C1OC(c2ccccc2)OC(CO)C1OC [EH-169, 3-O-methyl-2,4-O-benzylidene-D-xylose-diethyl-dithioacetal] | – | – | – | – | increase of [3H]-2-deoxy-D-glucose uptake ([2]; 60 μM): 1.8 fold; increase of [3H]-2-deoxy-D-glucose uptake ([2]; 120 μM): 2 fold
14 | – | O=C[C@H](O)[C@H](O)[C@H](O)CO [D-ribose] | – | – | – | – | effect of pentoses on the rate of hexose transport [4]: to a lesser extent
15 | – | CCS[C@@H]1OC[C@@H](O)[C@H](O)[C@H]1O [EH-143, β-ethylthio-D-xylopyranoside] | – | – | – | – | hexose transport augmenting activity of thioalkyl derivatives [1]: hexose transport augmenting activity
16 | – | O=CC[C@@H](O)[C@H](O)[C@H](O)CO [dGlc, 2-deoxy-D-glucose] | – | – | – | – | competition with [3H]dGlc [7]: competed markedly and similarly
